Source: ChEMBL document CHEMBL1201862, “PubChem BioAssay data set” (2004)
Active and inactive are the calls of the source.

Legend:
[1] = biological target: Botulinum neurotoxin type F (Clostridium botulinum, UniProt P30996); test: High-throughput multiplex microsphere dose response for inhibitors of toxin protease, specifically Botulinum neurotoxin light chain F protease, compounds from Cherry Pick 02.; type: functional; conditions: read-out: EC50_MICROM
[2] = OVCAR-3 cell viability loss – plate reader, dry powder samples, PAX8 inhibitor project, dose response (AID 743044); type: functional, cell-based
[3] = IGROV1 cell killing – plate reader, dry powder samples, PAX8 inhibitor project, dose response (AID 743043); type: functional, cell-based; conditions: IGROV-1
Paired box protein Pax-8 = Paired box protein Pax-8 (Homo sapiens, UniProt Q06710); test: PAX8 transcriptional activity inhibition in RMG-I – RMG-I cells, luciferase, cherry-pick, dose response (AID 687027); type: functional, cell-based;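 further: luciferase reporter driven by Pax8 target thyroperoxidase promoter measured by SteadyGlo luminescence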
[4] = OVCAR8 cell viability loss – plate reader, dry powder samples, PAX8 project, dose response (AID 743197); type: functional, cell-based; conditions: OVCAR-8
[5] = toxicity toward immortalized ovarian surface epithelium – cell-based, plate reader, dry powder samples, cytotoxicity control for PAX8 inhibitor project, dose response (AID 743045); type: functional
[6] = A2780 cell killing – plate reader, dry powder samples, cytotoxicity control, dose response (AID 743046); type: functional, cell-based
[7] = inhibition of Env-driven cell fusion – HIV entry, plate reader, dry powder, dose response (AID 687023); type: functional, cell-based
[8] = inhibitors of non-replicating M. tuberculosis, dose response, luciferase, dry powder (AID 651619); type: functional; conditions: Mycobacterium tuberculosis
[9] = HeLa cell viability loss – plate reader, dry powder, cytotoxicity control, dose response (AID 651946); type: functional, cell-based
[10] = inhibitors of non-replicating M. tuberculosis, dose response, luciferase, dry powder (AID 651620); type: functional; conditions: Mycobacterium tuberculosis
[11] = growth inhibition of replicating M. tuberculosis, dose response, counter-screen, dry powder, IC90 (AID 651617); type: functional; conditions: Mycobacterium tuberculosis
[12] = general mammalian cell viability loss – inhibitor set, cherry-pick, set 2, cytotoxicity control for miR-122 modulator project, dose response (AID 720697); type: functional, cell-based
[13] = viability loss in HepG2 hepatoma cells – cell-based, cherry-picks, set 5, cytotoxicity control, dose response (AID 1053118); type: functional
[14] = blockers of FN fibrillogenesis by fibroblasts – AH1F cells, Alexa488-FN fluorescence, cherry-picks, dose response (AID 1035475); type: functional, cell-based
[15] = viability loss in HEK293 kidney cells – cell-based, cherry-picks, set 5, cytotoxicity control, dose response (AID 1053117); type: functional
[16] = T. cruzi growth inhibition in host cells, dose response, cell-based, plate reader, dry powder, set 2 (AID 652275); type: functional
[17] = anti-trypanosomal activity in BESM host cells – imaging, CA-I/72 strain, bovine embryo skeletal muscle, dry powder, dose response (AID 651885); type: functional, cell-based
[18] = Trypanosoma cruzi replication inhibitors in host cells – cell-based, plate reader, dry powder samples, dose response (AID 651845); type: functional

Sequence of Paired box protein Pax-8 (Q06710 whole entry): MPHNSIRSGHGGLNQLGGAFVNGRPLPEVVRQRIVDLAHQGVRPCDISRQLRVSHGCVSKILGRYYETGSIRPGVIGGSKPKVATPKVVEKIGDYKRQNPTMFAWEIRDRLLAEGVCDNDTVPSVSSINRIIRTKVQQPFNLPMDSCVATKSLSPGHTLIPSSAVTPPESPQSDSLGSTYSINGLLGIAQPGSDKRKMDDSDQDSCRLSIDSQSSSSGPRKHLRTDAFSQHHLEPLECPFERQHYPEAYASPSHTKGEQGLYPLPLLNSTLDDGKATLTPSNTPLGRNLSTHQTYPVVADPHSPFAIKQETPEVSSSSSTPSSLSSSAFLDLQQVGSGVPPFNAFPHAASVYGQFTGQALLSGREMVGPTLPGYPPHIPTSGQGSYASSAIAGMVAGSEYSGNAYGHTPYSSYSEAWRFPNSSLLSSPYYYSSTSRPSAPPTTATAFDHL
Sequence of Botulinum neurotoxin type F (P30996 1-436 limits assumed): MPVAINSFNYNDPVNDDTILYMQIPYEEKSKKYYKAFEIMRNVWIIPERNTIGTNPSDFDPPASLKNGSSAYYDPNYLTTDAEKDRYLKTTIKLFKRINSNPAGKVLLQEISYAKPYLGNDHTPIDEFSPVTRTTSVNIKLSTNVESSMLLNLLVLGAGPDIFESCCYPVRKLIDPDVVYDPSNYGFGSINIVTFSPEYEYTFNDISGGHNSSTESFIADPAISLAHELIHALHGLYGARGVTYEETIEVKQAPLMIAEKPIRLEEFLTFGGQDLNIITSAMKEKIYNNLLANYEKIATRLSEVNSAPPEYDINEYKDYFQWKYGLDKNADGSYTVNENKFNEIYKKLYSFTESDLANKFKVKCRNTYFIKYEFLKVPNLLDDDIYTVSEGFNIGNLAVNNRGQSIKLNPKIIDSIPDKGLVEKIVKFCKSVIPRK

COc1ccc(C(CNC(=O)c2cc(S(=O)(=O)N3CCCCC3)ccc2C)N2CCCC2)cc1 (configuration not stated)
EC50 [1]: > 20 µM (inactive)

C[C@H]1CCCCO[C@H](CN(C)Cc2ccc(C(F)(F)F)cc2)[C@@H](C)CN([C@@H](C)CO)C(=O)c2cc(NC(=O)Cc3ccccc3)ccc2O1
AC50 [2]: 29.7 µM (active) | AC50 [3]: 31.9 µM (active) | AC50 (Paired box protein Pax-8): 7.6 µM (active) | AC50 [4]: 53 µM (active)

COc1ccc(-c2ccc3c(c2)[C@@H]2[C@@H](CCN2C(=O)NC2CCCCC2)[C@H](CO)N3C)cc1
AC50 [5]: 46.8 µM (active) | AC50 [2]: 49.5 µM (active) | AC50 (Paired box protein Pax-8): 10.7 µM (active) | AC50 [4]: > 60 µM (inactive) | AC50 [6]: 32.8 µM (active)

CCOc1ccc(OCC)c(S(=O)(=O)NCc2ccncc2)c1
AC50 [7]: > 70 µM (inactive)

[O-][S+](Cc1ccccc1)c1nnc(-c2ccccc2)o1 (configuration not stated)
IC90 [8]: 1 µM (active) | AC50 [9]: 32.2 µM (active) | IC90 [10]: 1 µM (active) | IC90 [11]: 31 µM (active)

CCCNC(=O)Nc1ccc2c(c1)C(=O)N(C)[C@@H]1CC[C@@H](CC(=O)NCC3CCCCC3)O[C@@H]1CO2
AC50 [12]: 0.456 µM (active)

C[C@H](CO)N1C[C@H](C)[C@H](CN(C)Cc2ccc(-c3ccccc3)cc2)Oc2ccc(NC(=O)CCCN(C)C)cc2C1=O
AC50 [13]: 11.8 µM (active) | AC50 [14]: 30.8 µM (active) | AC50 [15]: 12.7 µM (active)

C[C@@H]1CN([C@@H](C)CO)C(=O)c2cccc(NC(=O)c3ccncc3)c2O[C@H]1CN(C)Cc1ccc2c(c1)OCO2
AC50 [16]: 0.017 µM (active) | IC50 [17]: 0.0565 µM (active) | AC50 [18]: 0.0571 µM (active)
